{
  "source": "patent US9051250B2",
  "about": "“Polymorphs of N-malonyl-bis(N′-methyl-N′-thiobenzoylhydrazide)” (Synta Pharmaceuticals Corp., priority 2007, dated 2015)",
  "key": {"[1]": {"assay": "Reconstitution test in 50:50 Cremophor EL/Ethanol", "format": "physicochemical", "conditions": "266 mg in 16.7 ml 50:50 Cremophor EL/Ethanol", "procedure": "As used herein, the reconstitution time is measured in 50:50 Cremophor EL/ethanol solution at ambient temperature (e.g., 18-25° C.) The reconstitution time can be measure according to the procedure described in Example 7. For example, the reconstitution time is measured by dissolving 266 mg of compound 1 in 16.7 mL of 50:50 Cremophor EL/ethanol solution with manual shaking or mechanical shaking at a speed of 232-236 rpm.\n50:50 Cremophor EL/Ethanol was prepared and filtered through a 0.45 μm filter and used for testing. 266 mg of compound 1 was weighed into a 50 mL glass vial with a rubber stopper. 16.7 ml of filtered 50:50 Cremophor EL/Ethanol solution was taken by a syringe and needle and added into the vial. The vial was shaken either manually, or on a mechanical shaker at a speed of 232-236 rpm. The reconstitution time was determined with three vials. At different time points, vials were subject to visual observation."}, "[2]": {"assay": "Solubility of Form A and Form D", "format": "physicochemical", "conditions": "shake time 24 hour; for solubility at 24 h: organic solvent or mixture, thermodynamic from solid"}},
  "note": "Like-named read-outs stand apart in the source and are kept apart here.",
  "data": [
    {"compound": "CN(NC(=O)CC(=O)NN(C)C(=S)c1ccccc1)C(=S)c1ccccc1", "note": "[Crystal Habit 1, N-malonyl-bis(N′-methyl-N′-thiobenzoylhydrazide)]", "values": [
      {"measurement": "Re-constitution time (min) for specific sieve-cut", "setting": "[1]; 500 micron sieve-cut", "result": "greater than 25 min"}
    ]},
    {"compound": "CN(NC(=O)CC(=O)NN(C)C(=S)c1ccccc1)C(=S)c1ccccc1", "note": "[Crystal Habit 2, N-malonyl-bis(N′-methyl-N′-thiobenzoylhydrazide)]", "values": [
      {"measurement": "Re-constitution time (min) for specific sieve-cut", "setting": "[1]; 150 micron sieve-cut", "result": "less than or equal to 15 min"}
    ]},
    {"compound": "CN(NC(=O)CC(=O)NN(C)C(=S)c1ccccc1)C(=S)c1ccccc1", "note": "[Form A, N-malonyl-bis(N′-methyl-N′-thiobenzoylhydrazide)]", "values": [
      {"measurement": "solubility at 24 h", "setting": "[2]; 50:50 Cremophor/ethanol, 50:50 Cremophor/EtOH, Vial1, read-out: Solubility in 50:50 Cre/EtOH, Vial1", "result": 24400, "unit": "µg/mL"},
      {"measurement": "solubility at 24 h", "setting": "[2]; 50:50 Cremophor/ethanol, 50:50 Cremophor/EtOH, Vial2, read-out: Solubility in 50:50 Cre/EtOH, Vial2", "result": 24300, "unit": "µg/mL"},
      {"measurement": "solubility at 24 h", "setting": "[2]; 50:50 Cremophor/ethanol, 50:50 Cremophor/EtOH, average of two vials, read-out: Solubility in 50:50 Cre/EtOH, Average", "result": 24300, "unit": "µg/mL"},
      {"measurement": "solubility at 24 h", "setting": "[2]; ethanol, EtOH, Vial1, read-out: Solubility in EtOH, Vial1", "result": 6280, "unit": "µg/mL"},
      {"measurement": "solubility at 24 h", "setting": "[2]; ethanol, EtOH, Vial2, read-out: Solubility in EtOH, Vial2", "result": 6450, "unit": "µg/mL"},
      {"measurement": "solubility at 24 h", "setting": "[2]; ethanol, EtOH, average of two vials, read-out: Solubility in EtOH, Average", "result": 6400, "unit": "µg/mL"},
      {"measurement": "solubility at 24 h", "setting": "[2]; ethyl acetate, EtOAc, Vial1, read-out: Solubility in EtOAc, Vial1", "result": 4690, "unit": "µg/mL"},
      {"measurement": "solubility at 24 h", "setting": "[2]; ethyl acetate, EtOAc, Vial2, read-out: Solubility in EtOAc, Vial2", "result": 4690, "unit": "µg/mL"},
      {"measurement": "solubility at 24 h", "setting": "[2]; ethyl acetate, EtOAc, average of two vials, read-out: Solubility in EtOAc, Average", "result": 4700, "unit": "µg/mL"}
    ]},
    {"compound": "CN(NC(=O)CC(=O)NN(C)C(=S)c1ccccc1)C(=S)c1ccccc1", "note": "[Form D, N-malonyl-bis(N′-methyl-N′-thiobenzoylhydrazide)]", "values": [
      {"measurement": "Solubility in 50:50 Cre/EtOH, Vial1", "setting": "[2]; 50:50 Cremophor/EtOH, Vial1", "result": 42690, "unit": "µg/mL"},
      {"measurement": "Solubility in 50:50 Cre/EtOH, Vial2", "setting": "[2]; 50:50 Cremophor/EtOH, Vial2", "result": 42740, "unit": "µg/mL"},
      {"measurement": "Solubility in 50:50 Cre/EtOH, Average", "setting": "[2]; 50:50 Cremophor/EtOH, average of two vials", "result": 42700, "unit": "µg/mL"},
      {"measurement": "Solubility in EtOAc, Vial1", "setting": "[2]; EtOAc, Vial1", "result": 7410, "unit": "µg/mL"},
      {"measurement": "Solubility in EtOAc, Vial2", "setting": "[2]; EtOAc, Vial2", "result": 7500, "unit": "µg/mL"},
      {"measurement": "Solubility in EtOAc, Average", "setting": "[2]; EtOAc, average of two vials", "result": 7500, "unit": "µg/mL"},
      {"measurement": "Solubility in EtOH, Vial1", "setting": "[2]; EtOH, Vial1", "result": 9760, "unit": "µg/mL"},
      {"measurement": "Solubility in EtOH, Vial2", "setting": "[2]; EtOH, Vial2", "result": 9750, "unit": "µg/mL"},
      {"measurement": "Solubility in EtOH, Average", "setting": "[2]; EtOH, average of two vials", "result": 9800, "unit": "µg/mL"}
    ]}
  ]
}
